From US11213509B2, “Compositions and methods for treating traumatic brain injury” (Ischemix, LLC, priority 2017, dated 2022)

How the values were obtained:
[1] = Body weight and post-operative observations, rat model of focal TBI (BCCI); type: in vivo
Source text: Adult, male, Spague-Dawley rats from Charles River were used. Animals were received at PsychoGenics and assigned unique identification numbers (tails marked). Animals were housed 2 per cage in polycarbonate rat cages equipped with microisolators and acclimated for up to 7 days. All rats were examined, handled, and weighed prior to initiation of the study to assure adequate health and suitability. During the course of the study, 12/12 light/dark cycles were maintained. The room temperature was maintained between 20 and 23° C. with a relative humidity maintained around 50%. Chow and water were provided ad libitum for the duration of the study. Animals were randomly assigned across treatment groups.
BCCI TBI to the medial frontal cortex (MFC) was induced by a cortical contusion device (Custom Design & Fabrication, Inc [CDF], Richmond, Va.). This device creates a reliable contusion injury to the exposed area of the brain with a brass-tipped impounder. (Hoffman et al., 1994). Rats were anesthetized with isoflurane (5%) (Novaplus™), and 02 (300 cm^3/min), and mounted in a stereotaxic frame. […]
Data are presented as mean±SEM and analyzed by one-way repeated measures Analysis of variance (ANOVA) in order to test the effects of treatment on beam balance times and Morris water maze performance. […]

[2] = Body weight change, fluid percussion model of diffused TBI; type: in vivo, rat; conditions: 7.5, 15, 30, 45 mg/kg i.v. vs vehicle; 28 days
Experimental: On the day before TBI surgery (Day −1), rats were anesthetized with 3% isoflurane in a mixture of nitrous oxide and oxygen (2:1) for induction of anesthesia and then maintained at 1-3% isoflurane in a mixture of nitrous oxide and oxygen (2:1). The surgical site skin was shaved, and the rat was then placed in a stereotaxic frame. Buprenorphine SR, s.c, (0.9-1.2 mg/kg Zoopharm: Lot: BSR1-142111) and Cefazolin, i.p., (40-50 mg/kg; Hospira: Lot: 101D032) was given at this time. The skull was exposed through a midline incision. A parasagittal craniotomy (5 mm) using a trephine drill was performed at 1 mm posterior to bregma and 1 mm lateral to the midline (outer circumference). […]
On the day of TBI surgery (Day 0), rats were re-anesthetized with 3% isoflurane in a mixture of nitrous oxide and oxygen (2:1), intubated, connected to a respirator and ventilated with 1-2% isoflurane in a mixture of nitrous oxide and oxygen (2:1). […] The amplitude of the resulting pressure pulse was measured in atmospheres by a pressure transducer. […]
Dosing solutions were prepared in a blinded fashion with H, I, M, O and Z labels ready to use. […]
All data were expressed as mean S.E.M. Behavioral data and weight were analyzed by repeated measures of ANOVA and/or ANCOVA. […]

[3] = tested on: protein carboxylation; test: Protein carboxylation by ELISA, focal TBI model in piglets; type: in vivo; conditions: cortical penumbra, ipsilateral; vs placebo, p<0.01
Experimental: Study Design: A blinded, placebo controlled proof of concept trial of CMX-2043 was conducted in four-week-old piglets (8-10 kg). […] Sixteen piglets (n=16) were designated into three cohorts: 1) Controlled cortical impact (CCI) at the rostral gyrus treated with a bolus of CMX-2043 (n=5), 2) CCI injured animals treated with placebo (n=5) and 3) sham animals (n=6). CMX-2043 treated animals received an intravenous loading bolus of CMX-2043 (13.4 mg/kg) 1 hour post-TBI and a 4.5 mg/kg bolus at 13 hours post-TBI. Subjects were intubated, ventilated and anesthesia maintained on isoflurane (1.0%). Buprenorphine (0.02 mg/kg IM) was administered for analgesia immediately following intubation. Monitors recorded oxygen saturation, heart rate, respiration rate, rectal temperature, and end tidal CO2. […] All piglets were sacrificed between 24-25 hours post-TBI.
Samples from the same ipsilateral region that were analyzed for mtROS were analyzed for oxidative damage by measuring protein carboxylation (VWR Int'l), and compared to placebo and shams.

CC(NC(=O)C(CCC(=O)O)NC(=O)CCCCC1CCSS1)C(=O)O [CMX-2043, N—(R)-lipoyl-glutamylalanine]
Body weight / weight gain ([1]; 30 mg/kg IV at 30 minutes and about 24 hrs after injury, vs saline): no adverse effects on weight gain | Survival (deaths within 24 hours post-injury) ([1]; 30 mg/kg IV, TBI-injured rats): 9 surviving animals of the 11 animals treated | Body weight over time [2]: no significant differences | Protein carboxylation (ELISA) [3]: significant reduction in protein carboxylation
